Results from paper PMC2323111, “Intervening with Urinary Tract Infections Using Anti-Adhesives Based on the Crystal Structure of the FimH–Oligomannose-3 Complex” (PLoS ONE, 2008).
Where two headings read alike, the source gives them in different places.

Key:
FimH [1] = target: T1, FimH (Escherichia coli, UniProt P08191); experiment: SPR, competition in solution with immobilized Fab 1C10; assay type: binding
Target sequence in this assay (P08191 22-179): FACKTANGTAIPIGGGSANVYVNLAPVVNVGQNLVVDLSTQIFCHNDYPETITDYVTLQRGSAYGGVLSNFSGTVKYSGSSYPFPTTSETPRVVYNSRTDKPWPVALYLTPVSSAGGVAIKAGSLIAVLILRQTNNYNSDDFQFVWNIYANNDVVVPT

FimH [2] = target: T1, FimH; experiment: inhibition of FimH-dependent bacterial adhesion to […] bladder cells, fimH-negative control; assay type: cell-based; parameters: J96 FimH expressed from plasmid pMMB66 on type 1 pili of AAEC185(pUT2002) E. coli
Target sequence in this assay (P08191 22-300): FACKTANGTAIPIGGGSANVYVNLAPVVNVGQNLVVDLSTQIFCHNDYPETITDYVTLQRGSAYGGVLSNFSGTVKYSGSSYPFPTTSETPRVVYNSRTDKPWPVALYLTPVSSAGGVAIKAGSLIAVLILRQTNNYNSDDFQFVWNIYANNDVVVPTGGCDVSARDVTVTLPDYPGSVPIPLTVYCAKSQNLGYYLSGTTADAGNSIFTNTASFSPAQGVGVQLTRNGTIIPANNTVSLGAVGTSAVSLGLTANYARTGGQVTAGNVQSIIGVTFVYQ

FimH [3] = target: T1, FimH; experiment: co-crystal structure, […] Å; assay type: binding
Target sequence in this assay (P08191 22-179): as the sequence (P08191 22-179) above

Work on `OC[C@H]1O[C@H](O[C@H]2[C@H](O)[C@@H](CO)OC(O)[C@H]2O)[C@@H](O)[C@@H](O)[C@@H]1O` (mixture of isomers) [Manα1,3Man] yielded a Kd (FimH [1]) of 281 nM.
For `CCCCCCCO[C@H]1O[C@H](CO)[C@@H](O)[C@H](O)[C@@H]1O` [HM, heptyl α-D-mannose], the “inhibition of FimH-dependent bacterial adhesion to 5637 bladder cells, fimH-nega” value (FimH [2]) was “HM is more efficient at reducing FimH-mediated bacterial adherence, in accordance with its higher affinity for FimH”.
For `CO[C@@H]1O[C@H](CO)[C@@H](O)[C@H](O[C@H]2O[C@H](CO)[C@@H](O)[C@H](O)[C@@H]2O)[C@@H]1O` [Manα1,3ManβOMe], the Kd (FimH [1]; read-out: Kd) was 112 nM.
For `CC(=O)N[C@H]1[C@H](O[C@H]2[C@H](O)[C@@H](NC(C)=O)C(O)O[C@@H]2CO)O[C@H](CO)[C@@H](O[C@@H]2O[C@H](CO[C@H]3O[C@H](CO)[C@@H](O)[C@H](O)[C@@H]3O)[C@@H](O)[C@H](O[C@H]3O[C@H](CO)[C@@H](O)[C@H](O)[C@@H]3O)[C@@H]2O)[C@@H]1O` (stereo partly shown) [oligomannose-3], the “co-crystal structure, 2.1 Å” value (FimH [3]) was “Oligomannose-3 has been crystallized in complex with the FimH RBD”.
